Experimental data taken from paper PMC7693880, “Preparation and Evaluation of Amino Acid Conjugates of Celecoxib as Prodrugs to Improve the Pharmacokinetic and Therapeutic Properties of Celecoxib” (Pharmaceutics, 2020).
Structures can show the parent of a compound that is named as a salt.

Legend:
[1] = Drug release study in cecal contents; assay type: in vitro ADME, Sprague Dawley rats; settings: incubation with cecal contents, after 24 h
Protocol: Drug release study was performed with the celecoxib derivatives as described previously. Six-week-old male Sprague Dawley rats (250–260 g) were sacrificed using CO2, and a midline incision was made. The contents of the proximal small intestine, distal small intestine, and cecum, liver homogenate, or blood plasma were collected and suspended in IPB (20% (w/v)). A1C, G1C, or N-GA1C in the buffer (0.5 mL, 1 mM) was mixed with 0.5 mL of the suspension and then incubated at 37 °C under nitrogen gas. At the predetermined time points, the samples were extracted with 0.5 mL of ethyl acetate followed by centrifugation at 6000× g for 5 min. Methanol (1.0 mL) was added to the residue obtained from the evaporation of 0.1 mL of the organic layer. The solution was centrifuged at 20,000× g at 4 °C for 10 min. The concentrations of celecoxib, A1C, G1C, and N-GA1C in 20 μL of the supernatant were determined by HPLC.

[2] = Apparent distribution coefficient (logD6.8) measurement, 1-octanol / pH 6.8 isotonic phosphate buffer; assay type: physicochemical; settings: 37 °C; for logD: pH 6.8, 1-octanol / pH 6.8 isotonic phosphate buffer, read-out: Log D6.8 (apparent distribution coefficient)
Protocol: For this study, 1-octanol and pH 6.8 isotonic phosphate buffer (IPB) were pre-saturated with IPB and 1-octanol, respectively. 1-octanol (10 mL) was added to 500 μM of celecoxib, A1C, or N-GA1C in 10 mL IPB. The mixture was shaken for 1 h and left at 37 °C for 3 h. The concentration of celecoxib, A1C, G1C, or N-GA1C in the aqueous phase was analyzed by HPLC. The apparent partition coefficients were calculated using the equation (Co − Cw)/Cw, where Co and Cw represent the initial and equilibrium concentration of the drug in the aqueous phase, respectively.

[3] = Pharmacokinetic study after oral or intravenous administration; assay type: in vivo, Sprague Dawley rats; settings: rat; for increase of the absolute BA of celecoxib: 20 mg/kg
Protocol: Blood samples were collected from the jugular vein using a heparinized syringe at predetermined times. Heparinized blood samples were immediately centrifuged at 6000× g for 5 min. Five-fold volume of ethyl acetate was mixed with plasma, centrifugation was performed at 6000× g for 5 min, and 1 mL of the organic solvent was evaporated. The residues were mixed with 0.1 mL of IPB and centrifuged at 20,000× g for 10 min at 4 °C. The concentration of celecoxib or N-GA1C in the samples was determined by HPLC. PK profiling was performed using PKsolver. Absolute BA and relative BA were calculated using the following equations: Absolute BA (F, %) = ((AUC0–∞)PO/dose PO)/((AUC0–∞)IV/dose IV); Relative BA (%) = ((AUC0–∞)A/dose A)/((AUC0–∞)B/dose B).

[4] = test system: carrageenan-induced paw edema; assay: Carrageenan-induced rat paw edema model; assay type: in vivo, Sprague Dawley rats; settings: oral 10 mg/kg (equivalent mass of celecoxib)
Protocol: Six-week-old male Sprague Dawley rats (250–260 g) were orally administered celecoxib (10 mg/kg), A1C (equivalent mass of celecoxib), G1C (equivalent mass of celecoxib), N-GA1C (equivalent mass of celecoxib), or IPB as a control. After 1 h, 0.1 mL of carrageenan (1%) was injected into the hind paw of the rats. Carrageenan-induced increase in paw volume (paw edema) was measured at predetermined time points (0, 3, 6, 12, and 24 h). The paw volume of rats up to the knee joint was measured using a plethysmometer. The degree of inhibition of paw edema (%) at each time point was calculated using the following equation: (Control volume − treatment group volume)/Control paw volume × 100.

[5] = male, Sprague Dawley, plasma, IV, 10 mg/kg

Cc1ccc(-c2cc(C(F)(F)F)nn2-c2ccc(S(=O)(=O)NC(=O)[C@@H](N)CC(=O)O)cc2)cc1 (as salt: salt) [A1C, aspart-1-yl celecoxib]
melting point: 134 to 137 °C

Cc1ccc(-c2cc(C(F)(F)F)nn2-c2ccc(S(=O)(=O)NC(=O)C(N)CCC(=O)O)cc2)cc1 (stereo not shown) (as salt: salt) [G1C, glutam-1-yl celecoxib]
melting point: 110 to 115 °C

Cc1ccc(-c2cc(C(F)(F)F)nn2-c2ccc(S(=O)(=O)NC(=O)[C@@H](N)CC(=O)O)cc2)cc1 [A1C, aspart-1-yl celecoxib]
conversion to celecoxib [1]: partially converted to celecoxib
logD [2]: 0.6
increase in absolute BA ([3]; oral, 10 mg/kg, vs oral celecoxib): no increase
increase of the absolute BA of celecoxib ([3]; oral, vs oral celecoxib): approximately two

Cc1ccc(-c2cc(C(F)(F)F)nn2-c2ccc(S(N)(=O)=O)cc2)cc1 [Celecoxib]
volume reduction of paw edema ([4]; at 6 h): 42.06 ± 4.69%
volume reduction of paw edema ([4]; at 24 h): 20.99 ± 2.791%
logD [2]: 4.01
Vd [3, 5]: 1.04 L/kg
clearance [3, 5]: 8.01 mL/min/kg
half-life [3, 5]: 1.5 h
AUC(0-inf) ([3]; male, Sprague Dawley, IV, 10 mg/kg, celecoxib in plasma): 6120 ± 520 ng·h/mL
AUC(0-t) ([3]; male, Sprague Dawley, IV, 10 mg/kg, celecoxib in plasma, read-out: AUC0–24): 5990 ± 440 ng·h/mL

Cc1ccc(-c2cc(C(F)(F)F)nn2-c2ccc(S(=O)(=O)NC(=O)C(N)CCC(=O)O)cc2)cc1 (stereo not shown) [G1C, glutam-1-yl celecoxib]
conversion to celecoxib [1]: partially converted to celecoxib
Log D6.8 (apparent distribution coefficient) [2]: 0.81
logD [2]: 0.8
increase of the absolute BA of celecoxib ([3]; oral, vs oral celecoxib): three

Cc1ccc(-c2cc(C(F)(F)F)nn2-c2ccc(S(=O)(=O)NC(=O)C(CC(=O)O)NC(=O)CN)cc2)cc1 (stereo not shown) [N-GA1C, N-glycyl-aspart-1-yl celecoxib]
volume reduction of paw edema ([4]; at 6 h): 32.42 ± 2.50%
volume reduction of paw edema ([4]; at 24 h): 78.96 ± 1.56%
logD [2]: -0.13
plasma concentration of N-GA1C ([3]; oral N-GA1C 10 mg/kg, for 24 h): not detected
